Experimental data from patent publication US20040034003A1, “7-Hydroxy-16alpha-fluoro-5-androsten-17-ones and 7-hydroxy-16alpha-fluoro-5-androstan-17-ones and derivatives thereof” (priority 2002, published 2004).
Values joined by “and” are separate entries in the source; they are usually repeats but may differ in a detail not shown here. Equal values may be shown once.

Tested on: TPA-Induced DNA Synthesis in Mouse Epidermis
Assay: TPA-induced DNA synthesis in mouse epidermis: [3H]thymidine incorporation and epidermal DNA content of a 2x2 cm2 skin section
Assay type: in vivo
Details: for μg DNA / corrected cpm / cpm/μg DNA / cpm: individual mouse
Experimental: Epidermal hypeplasia is determined by measuring the stimulation in [^3H] thymidine incorporation as well as epidermal DNA content of a 2×2 cm^2 section of skin twenty hours after TPA application.
In prior experiments, 16α-fluoro-5-androsten-17-one was administered in escalating doses by the oral subcutaneous, intraperitoneal, and buccal routes of administration, and the effect on TPA-stimulated epidermal [^3H] thymidine incorporation and epidermal DNA content was determined.
In this experiment, the effect of treating mice subcutaneously (s.c.) with suspensions of 7α-hydroxy-16α-flouro-5-androsten-17-one and suspensions of 16aflouro-5-androsten-17-one were investigated.
Variousl6α-flouro-5-androsten-17 one suspensions (Q) were prepared. The vehicle was 95% saline (0.9% NaCl) and 5% Emulphor. For the 5 mg/kg s.c. suspension, 25.3 mg was suspended in 10 mL of Emulphor-saline. The other suspensions were made by diluting the 5 mg/kg suspension. For the 2.5 mg/kg suspension, 1 mL of 5mg/kg s.c. suspension was diluted to a final volume of 2mL, for the 1 m/kg suspension 1 mL of the 5 mg/kg suspension was made to a total of 5 mL, while for the 0.125 mg/kg suspension, 0.5 mL of the 5 mg/kg suspension was made to a final volume of 20 mL. Magnetic stir bars were added to the suspensions which were kept on a magnetic stirrer.
7α-hydroxy-16α-flouro-5-androsten-17-one was prepared as described hereinabove. For the 5 mg/kg s.c. suspension, 16.3 mg was suspended in 6.5 mL of Emulphor-saline. The other suspensions were made by diluting the 5 mg/kg suspension. For the 2.5 mg/kg, 1 mL of 5 mg/kg suspension was diluted to a final volume of 2 mL, for the 1 mg/kg suspension 1 mL of the 5 mg/kg suspension was made to total 5 mL, while for the 0.125 mg/kg suspension, 0.5 mL of the 5 mg/kg suspension was made up to final volume of 20 mL. Magnetic stir bars were added to the suspensions and the suspensions were kept on a magnetic stirrer.
Female CD-1 mice were obtained from Charles River Laboratories, Wilmington, Mass. at 44-46 days of age. The mice were housed two to three per cage in plastic shoebox cages on Alphacel bedding with 12 hours of alternating light and dark in the CAF Animal Facility, 6th floor, Pharmacy Building. The mice had ad libitum access-to Purina 5015 chow and acidified tap water (pH≦2.6). The mice were allowed to acclimate to the facility for one week prior to use in an experiment. Three days after obtaining the mice, the mice were shaved and weighed. Only those mice showing no hair regrowth were used in the experiment.
Four days after the mice were shaved, they were treated as follows:
The mice were sacrificed 20 hours after treatment by an overdose of CO2. Twenty minutes prior to sacrifice, the mice were injected with 60 μCi of [^3H]thymidine (Amersham Batch 297). The mice were treated with a depilatory to remove any residual hair. A 2×2 cm^2 piece of skin was excised, placed in ice water for 30 seconds, then in 55° C. water for 30 seconds, then ice water again for 30 seconds. The epidermis was scrapped off using a scalpel and the scrapings were placed into ice cold 0.4N TCA (trichloroacetic acid). The scrapings were homogenized using a Tekmar Tissumizer (80% power for 30 seconds). The homogenates were centrifuged for 20 minutes at 3,000×g. The precipitates were washed 3× with 0.2N TCA, and 2× with absolute ethanol. The DNA in each sample was hydrolyzed with 0.5N TCA for 30 minuts at 90°. The tubes were centrifuged for 20 minutes at 3000×g. A 0.2 mL aliquot of each hydrolysate was counted in a LKB Rackbeta scintillation counter using Scintiverse II BD as the counting medium. DNA content was determined by the Burton diphenylamine assay.
Various suspensions were prepared of 16α-fluoro-5-androsten-17-one as follows. The vehicle was 95% saline (0.9% NaCl) and 5% Emulphor. For the 5 mg/kg s.c. suspension, 27.8 mg was suspended in 11.4 mL of Emulphor-saline. The other suspensions were made by diluting the 5 mg/kg suspension. […]

[1] = Example 4, 0.125 mg/kg s.c. 1 h before topical TPA 2 μg, 20 h, 0.125 mg/kg
[2] = Example 4, 1 mg/kg s.c. 1 h before topical TPA 2 μg, 20 h, 1 mg/kg
[3] = Example 4, 2.5 mg/kg s.c. 1 h before topical TPA 2 μg, 20 h, 2.5 mg/kg
[4] = Example 4, 5 mg/kg s.c. 1 h before topical TPA 2 μg, 20 h
[5] = Example 4, 5 mg/kg s.c. 1 h before topical TPA 2 μg, 20 h, 5 mg/kg
[6] = Example 5, 1 mg/kg s.c. 1 h before topical TPA 2 μg, 20 h, 1 mg/kg
[7] = Example 5, 1.75 mg/kg s.c. 1 h before topical TPA 2 μg, 20 h, 1.75 mg/kg
[8] = Example 5, 2.5 mg/kg s.c. 1 h before topical TPA 2 μg, 20 h, 2.5 mg/kg
[9] = Example 5, 3.75 mg/kg s.c. 1 h before topical TPA 2 μg, 20 h, 3.75 mg/kg
[10] = Example 5, 5 mg/kg s.c. 1 h before topical TPA 2 μg, 20 h, 5 mg/kg

SMILES: C[C@]12CCCCC1=C[C@@H](O)[C@@H]1[C@@H]2CC[C@]2(C)C(=O)[C@H](F)C[C@@H]12 [7α-hydroxy-16α-fluoro-5-androsten-17-one, 16α-fluoro-7α-hydroxy-5-androsten-17-one]
- μg DNA (Example 4, 0.125 mg/kg s.c. 1 h before topical TPA 2 μg, 20 h, Burton diphenylamine assay, 0.125 mg/kg): 16.8 µg and 15.4 µg
- cpm/μg DNA (group average ±) (Example 4, 0.125 mg/kg s.c. 1 h before topical TPA 2 μg, 20 h): 335.1 ± 64.4 cpm/μg DNA
- corrected cpm [1]: 6,394.0 cpm and 4,458.0 cpm
- cpm/μg DNA [1]: 380.6 cpm/μg DNA and 289.5 cpm/μg DNA
- cpm (Example 4, 0.125 mg/kg s.c. 1 h before topical TPA 2 μg, female CD-1 mice, 20 h after treatment, 0.125 mg/kg): 6,419.0 cpm and 4,483.0 cpm
- cpm/μg DNA (group average ±) (Example 4, 1 mg/kg s.c. 1 h before topical TPA 2 μg, 20 h): 245.5 ± 44.1 cpm/μg DNA
- corrected cpm [2]: 3,021.0 cpm and 3,623.0 cpm
- cpm [2]: 3,046.0 cpm and 3,648.0 cpm
- cpm/μg DNA [2]: 214.3 cpm/μg DNA and 276.6 cpm/μg DNA
- μg DNA [2]: 14.1 µg and 13.1 µg
- cpm/μg DNA (group average ±) (Example 4, 2.5 mg/kg s.c. 1 h before topical TPA 2 μg, 20 h): 350.2 ± 32.5 cpm/μg DNA
- corrected cpm [3]: 4,478.0 cpm and 3,698.0 cpm
- cpm [3]: 4,503.0 cpm and 3,723.0. cpm
- cpm/μg DNA [3]: 373.2 cpm/μg DNA and 327.3 cpm/μg DNA
- μg DNA [3]: 12.0 µg and 11.3 µg
- cpm/μg DNA (group average ±) [4]: 360.3 ± 9.3 cpm/μg DNA
- μg DNA [4]: 11.9 µg
- corrected cpm [5]: 4,366.0 cpm and 4,209.0 cpm
- cpm [5]: 4,391.0 cpm and 4,234.0 cpm
- cpm/μg DNA [5]: 366.9 cpm/μg DNA and 353.7 cpm/μg DNA
- effect on [3H]thymidine incorporation and epidermal DNA content (in words) (Example 4, s.c., dose range 0.125-5 mg/kg): inhibited [^3H] thymidine incorporation and epidermal DNA content over the dose range with no apparent nadir or over stimulation

SMILES: C[C@]12CCCCC1=C[C@H](O)[C@@H]1[C@@H]2CC[C@]2(C)C(=O)[C@H](F)C[C@@H]12 [7β-hydroxy-16α-fluoro-5-androsten-17-one, 16α-fluoro-7β-hydroxy-5-androsten-17-one]
- cpm/μg DNA (group average ±) (Example 5, 1 mg/kg s.c. 1 h before topical TPA 2 μg, 20 h): 283.4 ± 35.3 cpm/μg DNA
- corrected cpm [6]: 4,501.0 cpm and 3,230.0 cpm
- cpm/μg DNA [6]: 308.3 cpm/μg DNA and 258.4 cpm/μg DNA
- μg DNA [6]: 14.6 µg and 12.5 µg
- cpm (Example 5, 1 mg/kg s.c. 1 h before topical TPA 2 μg, female CD-1 mice, 20 h, 1 mg/kg): 4,527.0 cpm and 3,256.0 cpm
- cpm/μg DNA (group average ±) (Example 5, 1.75 mg/kg s.c. 1 h before topical TPA 2 μg, 20 h): 156.6 ± 17.0 cpm/μg DNA
- corrected cpm [7]: 1,445.0 cpm and 1,534.0 cpm
- cpm [7]: 1,471.0 cpm and 1,560.0 cpm
- cpm/μg DNA [7]: 144.5 cpm/μg DNA and 168.6 cpm/μg DNA
- μg DNA [7]: 10.0 µg and 9.1 µg
- cpm/μg DNA (group average ±) (Example 5, 2.5 mg/kg s.c. 1 h before topical TPA 2 μg, 20 h): 480.5 ± 117.6 cpm/μg DNA
- corrected cpm [8]: 3,814.0 cpm and 5,861.0 cpm
- cpm [8]: 3,840.0 cpm and 5,887.0 cpm
- cpm/μg DNA [8]: 397.3 cpm/μg DNA and 563.6 cpm/μg DNA
- μg DNA [8]: 9.6 µg and 10.4 µg
- cpm/μg DNA (group average ±) (Example 5, 3.75 mg/kg s.c. 1 h before topical TPA 2 μg, 20 h): 485.4 ± 115.3 cpm/μg DNA
- corrected cpm [9]: 4,706.0 cpm and 2,585.0 cpm
- cpm [9]: 4,732.0 cpm and 2,611.0 cpm
- cpm/μg DNA [9]: 567.0 cpm/μg DNA and 403.9 cpm/μg DNA
- μg DNA [9]: 8.3 µg and 6.4 µg
- cpm/μg DNA (group average ±) (Example 5, 5 mg/kg s.c. 1 h before topical TPA 2 μg, 20 h): 653.7 ± 61.0 cpm/μg DNA
- corrected cpm [10]: 6,132.0 cpm and 3,908.0 cpm
- cpm [10]: 6,158.0 cpm and 3,934.0 cpm
- cpm/μg DNA [10]: 696.8 cpm/μg DNA and 610.6 cpm/μg DNA
- μg DNA [10]: 8.8 µg and 6.4 µg
- activity compared with 16α-fluoro-5-androsten-17-one (in words) (Example 5, s.c.): much more active
- dose producing an overstimulation of [3H]thymidine incorporation (Example 5, s.c.): 2.5 mg/kg
